In the supplement of paper PMC10307832:

How the values were obtained:
Experiment in all cases: relative viability (nuclei count vs DMSO), 5 days (fraction); higher = more cells survive
Quizartinib + Crizotinib = compound: CC(C)(C)c1cc(NC(=O)Nc2ccc(-c3cn4c(n3)sc3cc(OCCN5CCOCC5)ccc34)cc2)no1 [Quizartinib] + C[C@@H](Oc1cc(-c2cnn(C3CCNCC3)c2)cnc1N)c1c(Cl)ccc(F)c1Cl [Crizotinib] (partner 1 µM)
Outline: (§1)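 Relative viability divides the nuclei count in treated wells by that in vehicle wells. Lung cancer cell lines were seeded in 1536-well plates, dosed by pin tool the next day, and fixed and stained after 5 days in one step with final 0.05% Triton X-100, 1% formaldehyde and 1 ug/ml Hoechst. Dosing was a single drug or a fixed anchor-drug dose plus five library-drug doses (not always all listed) in √10 steps, and values are medians of duplicate plates imaged at 4×.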

Quizartinib + Pemetrexed = compound: CC(C)(C)c1cc(NC(=O)Nc2ccc(-c3cn4c(n3)sc3cc(OCCN5CCOCC5)ccc34)cc2)no1 [Quizartinib] + Nc1nc2[nH]cc(CCc3ccc(C(=O)N[C@@H](CCC(=O)O)C(=O)O)cc3)c2c(=O)[nH]1 [Pemetrexed] (partner 0.2 µM)
Outline: as §1

Quizartinib + Luminespib = compound: CC(C)(C)c1cc(NC(=O)Nc2ccc(-c3cn4c(n3)sc3cc(OCCN5CCOCC5)ccc34)cc2)no1 [Quizartinib] + CCNC(=O)c1noc(-c2cc(C(C)C)c(O)cc2O)c1-c1ccc(CN2CCOCC2)cc1 [Luminespib] (partner 0.01 µM)
Outline: as §1

YM155 + OSI-027 = compound: COCC[n+]1c2c(n(Cc3cnccn3)c1C)C(=O)c1ccccc1C2=O [YM155] + COc1cccc2cc(-c3nc([C@H]4CC[C@H](C(=O)O)CC4)n4ncnc(N)c34)[nH]c12 [OSI-027] (partner 0.5 µM)
Outline: as §1

Cell Line	relative viability (Quizartinib + Crizotinib; first compound 0.001 µM)	relative viability (Quizartinib + Crizotinib; first compound 0.003162 µM)	relative viability (Quizartinib + Crizotinib; first compound 0.01 µM)	relative viability (Quizartinib + Crizotinib; first compound 0.03162 µM)	relative viability (Quizartinib + Crizotinib; first compound 0.1 µM)	relative viability (Quizartinib + Pemetrexed; first compound 0.001 µM)	relative viability (Quizartinib + Pemetrexed; first compound 0.003162 µM)	relative viability (Quizartinib + Pemetrexed; first compound 0.01 µM)	relative viability (Quizartinib + Pemetrexed; first compound 0.03162 µM)	relative viability (Quizartinib + Pemetrexed; first compound 0.1 µM)	relative viability (Quizartinib + Luminespib; first compound 0.001 µM)	relative viability (Quizartinib + Luminespib; first compound 0.003162 µM)	relative viability (Quizartinib + Luminespib; first compound 0.01 µM)	relative viability (Quizartinib + Luminespib; first compound 0.03162 µM)	relative viability (Quizartinib + Luminespib; first compound 0.1 µM)	relative viability (YM155 + OSI-027; first compound 0.002 µM)	relative viability (YM155 + OSI-027; first compound 0.006325 µM)	relative viability (YM155 + OSI-027; first compound 0.02 µM)	relative viability (YM155 + OSI-027; first compound 0.06325 µM)
201T	1	1	1.03	1.02	1.05	0.272	0.311	0.306	0.302	0.365	1.01	1.01	0.963	1.01	1.01	0.629	0.696	0.751	0.754
A549	0.703	0.691	0.879	0.457	0.686														
A-427	0.808	0.926	0.941	0.813	0.638	0.781	0.96	0.84	0.884	0.954	1.03	0.777	0.988	0.506	1.01	0.478	0.562	0.597	0.458
ABC-1	0.922	0.799	1.22	0.527	1.3						0.67	0.445	0.504		0.498	0.491	0.477	0.282	0.154
BEN	0.819	0.769	0.766	0.722	0.73	0.739	0.959	0.681	0.659	0.78	0.421	0.33	0.307	0.384	0.214	0.268	0.311	0.304	0.29
CAL-12T	0.652	0.662	0.724	0.202	0.696	1.01	1.01	1.36	0.998	1.49	0.456	0.373	0.638	0.357	0.363	0.657	0.619	0.746	0.529
COR-L23	0.573	0.538	0.753	0.51	0.67	0.193	0.189	0.208	0.194	0.211	0.653	0.613	0.773	0.439	0.668	0.692	0.735	0.488	0.132
COR-L 105	0.788	0.734	0.669	0.49	0.902	0.985	1.18	1.29		1.3	0.579	0.765	0.738	0.693	0.59	0.574	0.694	0.762	0.54
Calu-6	0.719	0.714	0.814	0.621	0.752														
ChaGo-K-1	1.1	1.06	1.23		1.19		0.247	0.264	0.26	0.264	0.522	0.635	0.682	0.625	0.601	0.474	0.536	0.549	0.662
EBC-1	0.197	0.173	0.211	0.207	0.211														
EKVX	0.867	0.683	0.779	0.994	1.09		0.363	0.434	0.39	0.351	0.673	0.805	0.862	0.829	0.865	0.683	0.759	0.683	0.687
EMC-BAC-2	0.753	0.713	0.873	0.758	0.738	0.365	0.44	0.451		0.493	1.11	1.15	1.2		1.23	0.388	0.364	0.374	0.382
EPLC-272H	0.826	0.828	0.739	0.845	1.01	0.255	0.361	0.4	0.26	0.305	0.439	0.418	0.44	0.399	0.168	0.287	0.312	0.286	0.251
H3255	0.736	0.86	1	0.834	0.868	0.531	0.579	0.546	0.593	0.586	0.788	0.857	0.966	0.971	0.875	0.577	0.56	0.652	0.569
HARA	0.87	0.97	1.17	1.08	1.09	0.257	0.266	0.266	0.222	0.304		0.684	0.933	0.526	0.566	0.495	0.51	0.792	0.505
HCC-15	0.798	0.79	0.817	0.802	0.81	0.223	0.21	0.248	0.216	0.224		0.281	0.197	0.346	0.33	0.693	0.758	0.721	0.534
HCC-44	0.66	0.817	0.927	0.765	0.682	0.572	0.665	0.655	0.65	0.606		0.99	1.06	0.35	0.996	0.45	0.608	0.58	0.304
HCC-78	0.315	0.345	0.376	0.319	0.391	0.915	0.882	0.968	0.869	0.917						0.361	0.379	0.385	0.383
HCC-366	0.405	0.411	0.689	0.517	0.467	0.148	0.148	0.129	0.165	0.178						1.08	0.767	1.01	0.945
HCC-827	0.934	0.877	0.961	0.934	0.879	0.237	0.249		0.24	0.276	0.647	0.487	0.606	0.401	0.738	0.678	0.805	0.76	0.842

Cell Line	relative viability (Quizartinib + Crizotinib; first compound 0.001 µM)	relative viability (Quizartinib + Crizotinib; first compound 0.003162 µM)	relative viability (Quizartinib + Crizotinib; first compound 0.01 µM)	relative viability (Quizartinib + Crizotinib; first compound 0.03162 µM)	relative viability (Quizartinib + Crizotinib; first compound 0.1 µM)	relative viability (Quizartinib + Pemetrexed; first compound 0.001 µM)	relative viability (Quizartinib + Pemetrexed; first compound 0.003162 µM)	relative viability (Quizartinib + Pemetrexed; first compound 0.01 µM)	relative viability (Quizartinib + Pemetrexed; first compound 0.03162 µM)	relative viability (Quizartinib + Pemetrexed; first compound 0.1 µM)	relative viability (Quizartinib + Luminespib; first compound 0.001 µM)	relative viability (Quizartinib + Luminespib; first compound 0.003162 µM)	relative viability (Quizartinib + Luminespib; first compound 0.01 µM)	relative viability (Quizartinib + Luminespib; first compound 0.03162 µM)	relative viability (Quizartinib + Luminespib; first compound 0.1 µM)	relative viability (YM155 + OSI-027; first compound 0.002 µM)	relative viability (YM155 + OSI-027; first compound 0.006325 µM)	relative viability (YM155 + OSI-027; first compound 0.02 µM)	relative viability (YM155 + OSI-027; first compound 0.06325 µM)
HOP-62	0.881	0.98	1.11	1.11	0.86	0.3	0.248	0.315	0.325	0.323	0.914	0.843	1.04	0.933	0.9	0.807	0.847	0.899	0.864
IA-LM	0.858	0.912	0.726		0.623														
LC-2-ad	0.437	0.514	0.583	0.469	0.362	0.275	0.285	0.268	0.269	0.233	0.938	1.07	0.945		0.985	0.804	0.917	0.773	0.621
LCLC-97TM1		0.27	0.463	0.297	0.417	0.178	0.177	0.195	0.184	0.191	0.7	0.6	0.892	0.686	0.759	0.442	0.539	0.548	0.469
LCLC-103H	0.784	1.16	0.992	1.05	1.02	0.419	0.485	0.484	0.464	0.493	1	0.896	0.989	1.04	0.961	0.465	0.436	0.408	0.464
LK-2	0.186	0.224	0.229	0.238	0.24	0.262	0.301	0.285	0.248	0.336	0.162		0.193	0.205	0.22	0.187	0.21	0.214	0.201
LOU-NH91	0.747	0.715	0.771	0.729	0.79	0.394	0.397	0.386	0.377	0.436	0.317	0.355	0.292	0.362	0.343	0.689	0.751	0.757	0.762
LU99A	0.49	0.507	0.656	0.534	0.507	0.206	0.189	0.179	0.189	0.183	0.268	0.216	0.234	0.257	0.237	0.285	0.274	0.322	0.28
LXF-289	0.743	0.787	0.821	0.8	0.726	0.789	0.827	1	0.83	0.867	0.63	0.666	0.778	0.699	0.794	0.723	0.856	0.767	0.785
NCI-H23		0.478	0.514	0.483	0.486	0.6	0.62	0.639	0.593	0.635	0.209	0.245	0.219		0.185	0.498	0.66	0.599	0.522
NCI-H322M	0.881	0.803	0.955	0.857	0.997	0.6	0.662	0.639	0.62	0.703	0.81	0.92	0.944	0.448	0.895	0.58	0.525	0.533	0.581
NCI-H522						0.948	0.984	0.934	0.948	1.01	1.11	1.07	0.892	1.1	1.47	0.752	0.599	0.715	0.753
NCI-H727	0.74		0.939	0.772	0.662							0.443	0.41	0.665	0.309	0.473	0.612	0.703	0.595
NCI-H1299	0.92	0.949	1.01	0.928	0.956														
NCI-H1395						0.802	0.927	0.717	0.74	1	0.68	0.52	0.841	0.71	0.69	0.579	0.665	0.684	0.705
NCI-H1648							0.617		0.552	1.05						0.283	0.271	0.259	0.231
NCI-H1703	0.791	0.718	0.219	0.136	0.335														
NCI-H1793						0.806	1.03	0.841	0.854	0.929	0.161	0.171	0.467	0.174	0.159	0.242	0.308	0.259	0.269
NCI-H2342						0.745	0.83	0.774	0.746	0.778	0.807	0.752	0.696	0.759	0.762	0.555	0.701	0.666	0.623
SW 900						0.435	0.488	0.422	0.485	0.483	0.159	0.188		0.153	0.161	0.544	0.501	0.557	0.478
